These results are taken from US8101761B2, “(E)-N-{3-[1-(8-fluoro-11H-10-OXA-1-AZA-dibenzo [A,D] cyclohepten-5ylidene)-propyl]-phenyl}-methanesulfonamide as glucocorticoid receptor modulator for the treatment of rheumatoid arthritis” (Eli Lilly and Company, priority 2008, dated 2012).

For the assay, the target named is T1, human androgen receptor (AR) (Homo sapiens, UniProt P10275).
T1 construct: expressed in transfected cells; host or cells: HEK293, transient transfection, CMV promoter plasmid
T1 sequence (P10275 1-920): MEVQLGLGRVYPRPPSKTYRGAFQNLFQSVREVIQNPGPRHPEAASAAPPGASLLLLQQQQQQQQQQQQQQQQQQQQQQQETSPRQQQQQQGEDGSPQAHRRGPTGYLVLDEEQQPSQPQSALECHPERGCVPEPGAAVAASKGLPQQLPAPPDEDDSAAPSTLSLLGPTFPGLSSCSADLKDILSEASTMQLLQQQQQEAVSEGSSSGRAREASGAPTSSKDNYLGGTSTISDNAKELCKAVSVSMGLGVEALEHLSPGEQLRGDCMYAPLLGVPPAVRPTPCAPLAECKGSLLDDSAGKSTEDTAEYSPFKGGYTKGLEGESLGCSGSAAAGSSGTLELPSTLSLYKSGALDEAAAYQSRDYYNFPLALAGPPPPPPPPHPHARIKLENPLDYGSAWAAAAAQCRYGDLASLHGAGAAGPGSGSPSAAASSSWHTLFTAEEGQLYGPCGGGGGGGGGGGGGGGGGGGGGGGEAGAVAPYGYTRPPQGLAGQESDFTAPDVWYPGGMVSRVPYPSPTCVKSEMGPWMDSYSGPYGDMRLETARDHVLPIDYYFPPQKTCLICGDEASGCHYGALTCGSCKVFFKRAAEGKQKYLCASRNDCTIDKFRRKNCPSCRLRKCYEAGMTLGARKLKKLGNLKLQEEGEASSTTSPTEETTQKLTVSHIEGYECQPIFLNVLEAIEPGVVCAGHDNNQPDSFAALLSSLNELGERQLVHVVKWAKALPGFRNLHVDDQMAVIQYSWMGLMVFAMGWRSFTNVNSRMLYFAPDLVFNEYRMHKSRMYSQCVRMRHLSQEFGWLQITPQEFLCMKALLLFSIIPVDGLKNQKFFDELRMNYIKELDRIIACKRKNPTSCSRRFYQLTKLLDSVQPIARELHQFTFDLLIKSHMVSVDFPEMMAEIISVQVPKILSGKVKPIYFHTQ
The experiment in a line: Nuclear hormone receptor functional modulation assay (probasin ARE-luciferase reporter, HEK293), AR. Type of assay: cell-based. The following applies: agonist mode, mean of n=4 or 5. The source says: The solvents, reagents, and ligands employed in the functional assay are readily available from commercial sources, or can be prepared by one of ordinary skill in the art.
Human embryonic kidney HEK293 cells are transfected with steroid hormone receptor and reporter gene plasmids using Fugene™ transfection reagent. Briefly, the reporter plasmid containing two copies of probasin ARE and TK(thymidine kinase) promoter upstream of the luciferase reporter cDNA, is transfected into HEK293 cells with a plasmid constitutively expressing human androgen receptor (AR) using viral CMV(cytomegalovirus) promoter. The reporter plasmid containing two copies of GRE and TK promoter upstream of the luciferase reporter cDNA is transfected with a plasmid constitutively expressing either human glucocorticoid receptor (GR), human mineralocorticoid receptor (MR), or human progesterone receptor (PR) using viral CMV promoter. […] After 24-hours incubation with test compounds, cells are lysed and luciferase activity is determined using standard techniques.
Data are fitted to a four parameter-fit logistic curve fit to determine EC50 values. […] IC50 values may be determined similarly using antagonist mode assay data. Percent inhibitions may also be determined relative to the response in the presence of agonist alone, as described above.

For `CC/C(=C1\c2ccc(F)cc2OCc2ncccc21)c1cccc(NS(C)(=O)=O)c1` [Compound (I), (E)-N-{3-[1-(8-Fluoro-11H-10-oxa-1-aza-dibenzo[a,d]cyclohepten-5-ylidene)-propyl]-phenyl}-methanesulfonamide], the “efficacy in activating transcription, AR” value (relative to 100 nM methyltrienolone) is “about 4.4%”. In addition, where the note is “read-out: EC50 in activating transcription, AR”, the EC50 (commonly the concentration giving half of the maximal effect) was over 10 µM.
